Measured values as given in US20260015364A1, “PIPERAZINE BRIDGE-SUBSTITUTED HETEROCYCLIC PYRIMIDINE COMPOUND” (MEDSHINE DISCOVERY INC., priority 2022, published 2026).

Columns and labels:
[1] = tested on: PANC04.03 human pancreatic cancer cells with KRAS^G12D mutation; assay: PANC04.03 3D CTG experiment (anti-proliferation); type: cell-based; settings: Panc 04.03, 168 h, 7 days incubation
Excerpt: This experiment aims to verify the inhibitory effect of the compounds of the present disclosure on the proliferation of PANC04.03 human pancreatic cancer cells with KRAS^G12D mutation.
(§1) Cell line PANC04.03 and RPMI-1640 medium were purchased from GIBCO, FBS was purchased from Hyclone, and human insulin was purchased from Yeasen. The 96-well plate was purchased from Ultra Low Cluster, CellTiter-Glo® 3D Cell Viability Assay reagents (chemiluminescent 3D cell viability assay reagents) were purchased from Promega, and 2104 En Vision plate reader was purchased from PerkinElmer.
(§2) PANC04.03 cells were cultured in an incubator at 37° C. with 5% CO2 under the conditions of RPMI-1640+15% FBS+5 µg/mL human insulin. Regular passaging was performed, and cells in the logarithmic growth phase were selected for plating. PANC04.03 cells were seeded in a 96-well U-bottom cell culture plate, and each well of 135 μL cell suspension contained 2000 PANC04.03 cells. The culture plate was cultured overnight in a 37° C., 5% CO2 incubator with 100% relative humidity. The test compound was diluted 5-fold to the eighth concentration using a pipette, ranging from 200 μM to 2.56 nM, and tested in duplicate. 78 μL of culture medium per well was added to an intermediate plate. […] A multimode microplate reader was used for reading. […]

[2] = tested on: GP2D cell subcutaneously transplanted tumors; assay: In vivo pharmacodynamic experiment of GP2D tumor model; parameters: species or system Balb/c Nude mice; settings: p.o., BID, 28 days of administration
Procedure: In vivo pharmacodynamics of GP2D cell subcutaneously transplanted tumors in Balb/c Nude mice model with human colon cancer
Cell culture: Human colon cancer GP2D cells were cultured in monolayer in vitro. The culture conditions were DMEM/F12 medium+20% fetal bovine serum, and cultured in a 37° C., 5% carbon dioxide incubator. Routine digestion with trypsin-EDTA was performed twice a week for passaging. When the cell saturation reached 80% to 90% and the required quantity was reached, the cells were harvested, counted, resuspended in an appropriate amount of PBS, and mixed with matrigel at a ratio of 1:1 to obtain a cell suspension with a cell density of 25×10^6 cells/mL.
Cell inoculation: 0.2 mL (5×10^6 cells/mouse) of GP2D cells (added with Matrigel with a volume ratio of 1:1) were subcutaneously inoculated into the right back of each mouse. […]
Tumor diameters were measured twice a week with a vernier caliper. […]
The tumor inhibitory efficacy of the compound was evaluated by TGI (%) or relative tumor proliferation rate T/C (%). […] The relative tumor volume (RTV) was calculated based on the results of tumor measurements. The calculation formula is RTV=Vt/V0, where V0 is the average tumor volume measured at the beginning of administration in groups (i.e., D0), and Vt is the average tumor volume measured at a certain measurement. […]

[3] = tested on: AsPC-1 human pancreatic cancer cells with KRAS^G12D mutation; assay: AsPC-1 3D CTG experiment (anti-proliferation); type: cell-based; settings: ASPC1, 168 h, 7 days incubation
Excerpt: This experiment aims to verify the inhibitory effect of the compounds of the present disclosure on the proliferation of AsPC-1 human pancreatic cancer cells with KRAS^G12D mutation.
as §1, with “AsPC-1” for “PANC04.03”, “GIBCO, and” for “GIBCO,”, “Hyclone.” for “Hyclone, and human insulin was purchased from Yeasen.”, “EnVision” for “En Vision”
as §2, with “AsPC-1” for “PANC04.03”, “CO2” for “CO2 under”, “RPMI-1640+10% FBS.” for “RPMI-1640+15% FBS+5 µg/mL human insulin.”, “500 AsPC-1” for “2000 PANC04.03”, “plate. Subsequently, 2 μL of the gradient diluted compound per well was transferred to the corresponding wells of the intermediate plate and mixed well.” for “plate.”

SMILES: C#Cc1c(F)ccc2cc(N)cc(-c3ncc4c(N5CC6CCC(C5)N6)nc(OC[C@@]56CC(=C)CN5C[C@@H]5C[C@@H]56)nc4c3F)c12 (single isomer, unassigned) [Compound 3]
- IC50 [1]: 34.2 nM
- TGI ([2]; 30 mpk): 85.57%
- TGI ([2]; 100 mpk): 98.95%
- IC50 [3]: 5.74 nM
